Measurements: patent US9814778B2, “Ionically crosslinked polyelectrolytes as underwater adhesives as controlled release vehicles” (The University of Toledo, priority 2014, dated 2017)

Key:
[1] = Dye loading efficiency and loading capacity of dye-loaded coacervates (UV-Vis of supernatant); format: physicochemical
Method: All solutions were adjusted to pH 7 using HCl and NaOH prior to mixing. The mixtures were than centrifuged at 15,000 rpm for 90 min using an Ependorf centrifuge. […] The loading capacity (LC) and loading efficiency (LE) for each loading procedure was calculated by subtracting the mass of dye in the supernatant from the total mass of dye originally in the solutions in the microcentrifuge tubes. The total dye mass in the supernatant was determined by measuring the supernatant mass in each tube and determining the supernatant dye concentration using UV-Vis spectroscopy (Varian Cary 50 Spectrophotometer) and the absorbance at a wavelength of 614 nm (ε=9.57×103 m2/mol) and 555 nm (ε=9.82×103 m2/mol) for Fast Green FCF and Rhodamine B, respectively. The LC and LE were then calculated using the following equations: […]
Similarly, the LEs of the dye-loaded complexes was measured at a constant initial dye concentration of 1 mg/ml while the PAH concentration was varied. The dye-loaded complex samples were prepared as outlined above; however, the PAH concentration was varied (between 2.5 and 10.0 wt %). […] The LC- and LE-values were then determined using Equations 1 and 2.

PAH/TPP complexes = assay: Isothermal titration calorimetry of dyes into PAH/TPP dispersion; format: binding; conditions: pH 7
Method: (§1) The Fast Green FCF and Rhodamine B solutions were then prepared at concentrations of 0.43 and 0.80 wt %, respectively. All solutions were adjusted to pH 7 using HCl and NaOH. ITC experiments were run by placing the PAH/PPi or PAH/TPP complex solutions in the sample cell, and loading the dye solution into the injector. The dye solutions were then titrated using twenty 15-μL injections, with 20 min equilibration intervals between each injection. The contents of the sample cell were stirred at 307 rpm with the impeller-shaped injector tip. The instrument software was used to integrate the raw ITC data obtained from these titrations. The heat of dilution, which was obtained by titrating the dye solutions into DI water, was then subtracted from the integrated data to obtain the final thermograms. To ensure reproducibility, each ITC test was repeated twice.
(§2) Fast Green FCF and Rhodamine B are anionic and cationic, respectively. ITC was used to probe the binding of these dye molecules to the ionically crosslinked networks. In ITC the heat required to maintain a sample cell (which contains a binding substrate solution) at a constant temperature upon the addition of a binding ligand solution is measured, with endothermic or exothermic peaks in the ITC raw data indicating binding. […]

PAH/PPi complexes = assay: Isothermal titration calorimetry of dyes into PAH/PPi dispersion; format: binding; conditions: pH 7
Method: as §1, §2

[2] = in solution; cited from earlier work
[3] = Dye release from dye-loaded complexes in 1×PBS at 37° C. (UV-Vis); format: physicochemical; conditions: PAH/PPi and PAH/TPP complexes, 7-8 mm plugs, time span of up to 164 days
Method: The supernatant was removed from the microcentrifuge tube, and the inside of the tube was rinsed with DI water to ensure all excess supernatant was removed. The release medium, 1 ml of 1×PBS, was then added to the microcentrifuge tube. During the release evaluations, the contents of the microcentrifuge tube was mixed at 400 rpm in an Ependorf Thermomixer at 37° C. The old PBS solution was replaced with fresh PBS daily. UV-Vis spectroscopy was used to determine the amount of dye released within this one day interval. The concentration of dye in the PBS was determined using the absorbance of the solution as described above. These release studies were run until the amount of dye released in one day became so low that a discernable peak in the UV-Vis spectrum could not be obtained. The weight of the adhesives was also tracked during the release process using the procedure described above. Each release experiment was repeated thrice to ensure reproducibility. An additional release study was run (using the same complex/dye compositions) with tap water at room temperature as the release medium.
The released dye concentration in the PBS was determined using UV-Vis spectroscopy, with the PBS being replaced daily. This procedure was repeated until discernable UV-Vis peaks could no longer be obtained from the PBS samples in order to obtain release profiles. […]

[4] = PAH/PPi, initial dye 0.5 mg/ml, 10.0 wt % PAH
[5] = PAH/PPi, initial dye 1 mg/ml, 5% PAH
[6] = PAH/PPi, initial dye 1 mg/ml, 10% PAH
[7] = PAH/PPi, initial dye 1 mg/ml, 10.0 wt % PAH
[8] = PAH/PPi, initial dye 4 mg/ml, 10.0 wt % PAH
[9] = PAH/TPP, initial dye 0.5 mg/ml, 10.0 wt % PAH
[10] = PAH/TPP, initial dye 1 mg/ml, 5% PAH
[11] = PAH/TPP, initial dye 1 mg/ml, 10% PAH
[12] = PAH/TPP, initial dye 1 mg/ml, 10.0 wt % PAH
[13] = PAH/TPP, initial dye 4 mg/ml, 10.0 wt % PAH

CCN(CC)c1ccc2c(-c3ccccc3C(=O)O)c3ccc(=[N+](CC)CC)cc-3oc2c1.[Cl-] [Rhodamine B]
Loading Capacity [1, 4]: 0.55 ± 0.16 mg/mL
Loading Efficiency [1, 4]: 9.83 ± 2.79%
Loading Efficiency ([1]; PAH/PPi, initial dye 1 mg/ml, 2.5% PAH): 1.49 ± 0.30%
Loading Efficiency [1, 5]: 3.76 ± 0.45%
Loading Efficiency [1, 6]: 6.38 ± 0.79%
Loading Capacity [1, 7]: 0.71 ± 0.09 mg/mL
Loading Capacity [1, 8]: 3.46 ± 1.24 mg/mL
Loading Efficiency [1, 8]: 7.76 ± 2.77%
Loading Capacity [1, 9]: 0.45 ± 0.11 mg/mL
Loading Efficiency [1, 9]: 8.71 ± 2.10%
Loading Efficiency ([1]; PAH/TPP, initial dye 1 mg/ml, 2.5% PAH): 1.59 ± 0.65%
Loading Efficiency [1, 10]: 3.78 ± 0.32%
Loading Efficiency [1, 11]: 6.27 ± 1.04%
Loading Capacity [1, 12]: 0.65 ± 0.11 mg/mL
Loading Capacity [1, 13]: 2.74 ± 0.58 mg/mL
Loading Efficiency [1, 13]: 6.62 ± 1.41%
binding to the ionically crosslinked network (ITC) (PAH/TPP complexes): binds only very weakly and non-cooperatively
binding to the ionically crosslinked network (ITC) (PAH/PPi complexes): binds only very weakly and non-cooperatively

tripolyphosphate [TPP]
pKa,3 [2]: 2.8
pKa,4 [2]: 6.5
pKa,5 [2]: 9.2

CCN(Cc1cccc(S(=O)(=O)[O-])c1)c1ccc(C(=C2C=CC(=[N+](CC)Cc3cccc(S(=O)(=O)[O-])c3)C=C2)c2ccc(O)cc2S(=O)(=O)[O-])cc1.[Na+].[Na+] [Fast Green, Fast Green FCF]
Loading Capacity [1, 4]: 3.16 ± 0.17 mg/mL
Loading Efficiency [1, 4]: 56.48 ± 3.04%
Loading Efficiency [1, 5]: 61.69 ± 1.13%
Loading Efficiency [1, 6]: 63.03 ± 1.37%
Loading Capacity [1, 7]: 7.04 ± 0.15 mg/mL
Loading Capacity [1, 8]: 30.62 ± 0.93 mg/mL
Loading Efficiency [1, 8]: 68.54 ± 2.09%
Loading Capacity [1, 9]: 3.31 ± 0.07 mg/mL
Loading Efficiency [1, 9]: 64.01 ± 1.45%
Loading Efficiency [1, 10]: 72.40 ± 0.53%
Loading Efficiency [1, 11]: 72.94 ± 3.09%
Loading Capacity [1, 12]: 7.54 ± 0.32 mg/mL
Loading Capacity [1, 13]: 30.89 ± 1.43 mg/mL
Loading Efficiency [1, 13]: 74.74 ± 3.47%
fraction of payload released [3]: < 5%
binding to the ionically crosslinked network (ITC) (PAH/TPP complexes): strong cooperative binding
binding to the ionically crosslinked network (ITC) (PAH/PPi complexes): strong cooperative binding
